Test results taken from patent US20050215531A1, “Use of edg receptor binding agents in cancer” (priority 2002, published 2005).

What was measured:
Assay type in all cases: cell-based, human
HUVEC = assay: In vitro angiogenesis (tube formation) assay on Matrigel
Description: (§1) Human umbilical vein endothelial cells (HUVEC) are cultured at 37° C. and 5% CO2 in medium M199 supplemented with 20% SCS (HyClone, Logan, Utah), 1 U/ml heparin, 50 μg/ml ECGS, 2 mM glutamine, 100 U/ml penicillin and 0.1 mg/ml streptomycin. Cells are used for experiments up to passage number 5. Short-starved HUVEC are obtained by starving with 1% SCS-containing M199 for 5 h. Recombinant human VEGF165 is obtained from PromoCell (Heidelberg, Germany). Phospho-specific ERK½, p3B kinase polyclonal antibodies, nonphospho ERK½ antibodies and LumiGLO chemiluminescent reagent are from New England BioLabs (Beverly, Mass.), polyclonal IKB antibodies from Santa Cruz Biotechnology (Santa Cruz, Calif.). Peroxidase-conjugated donkey anti-rabbit immunoglobulin G (IgG) and sheep anti-mouse IgG are purchased from Amersham LIFE SCIENCE (Amersham Place, England). lmmobilon-P transfer membranes are products of Millipore (Bedford, Mass.). S is obtained from Sigma Chemical Co.; S1P is from Biomol. Compound A-phosphate stock solution is prepared by the following protocol. Compound A-phosphate is dissolved in methanol tracing with concentrated HCl (0.5 mg Compound A-phosphate in 500 μl of methanol plus 2 μl of HCl). Solvent from the resulting solution is evaporated under vacuum and the residue obtained is redissolved (variant 1) in 0.1% of defatted BSA solution in sterile deionized water (500 μl) or (variant 2) in 0.5% Triton X-100 in deionized water. The resulting stock solutions (2.5 mM) are sonicated and stored at 4° C.
Morphogenesis of endothelial cells into capillary-like structures on Growth Factor Reduced Matrigel Matrix (BD Bioscience) is performed according to the manufacture procedure. Briefly, HUVEC are trypsinized, resuspended in serum-free Ml 99 medium containing soybean trypsin inhibitor (1 mg/ml, Sigma). After centrifugation cells are resuspended in serum-free medium at a density 0.5×10^5 cells/ml, and cell suspension is seeded in 96-well cell culture plates (Costar, Corning Incorporated) precoated with 50 μl of Matrigel in the absence or presence of various stimuli: VEGF at 1.5 nM, S1P at 0.1-2 μM, S at 0.5-2 μM, Compound A at 0.5-2 μM, and Compound A-phosphate at 0.1-2 μM. Eight hours later, cells on Matrigel are fixed with 3% formaldehyde in PBS and kept at 4° C. Results are quantitated from images made with a Nikon Diaphot microscope equipped with a cooled CCD camera (Kappa GmbH, Gleichen, Germany) by direct counting of branching points on two microscopic fields from each well done in duplicates.
The effect of Compound A and Compound A-phosphate on morphogenic differentiation of endothelial cells is determined using an in vitro angiogenesis assay on Matrigel. Endothelial cell morphogenesis is a complex process that requires cell-extracellular matrix interactions, followed by matrix remodelling, stimulated migration, cell-cell interactions, and perivascular proteolysis. […] This may be interpreted as a possible involvement of EDG-1 (S1P1) receptor-mediated signaling events in Compound A-phosphate-stimulated bioresponses (see e.g. FIG. 3). […] Importantly, high concentrations of S and Compound A (2-5 μM) inhibited VEGF-triggered tube formation.

p38 kinase = assay: Western blot, p38 kinase activation in HUVEC
Description: as §1, with “Solvent from the resulting solution is evaporated under vacuum and the residue obtained is redissolved (variant 1) in 0.1% of defatted BSA solution in sterile deionized water (500 μl) or (variant 2) in 0.5% Triton X-100 in deionized water. The resulting stock solutions (2.5 mM) are sonicated and stored at 4° C.” left out

E-Selectin = E-Selectin expression in endothelial cells

## CCCCCCCCc1ccc(CCC(N)(CO)COP(=O)(O)O)cc1 (stereo not drawn) [Compound A-phosphate]
HUVEC; 2 μM
  tube formation potency at 2 μM versus 0.5 μM: less potent than at 0.5 μM
HUVEC; 0.5-1 μM, with VEGF
  effect on VEGF-mediated remodelling: does not attenuate
HUVEC; bell-shape dose-dependence, tested 0.1-2 μM, 8 h
  concentration of maximal activity in capillary-like network formation: around 0.5 μM
HUVEC; compared with S1P and VEGF
  number of branching points per microscopic field (induction potency): comparable for Compound A-phosphate and S1P
p38 kinase
  activation of p38 kinase: No activation
E-Selectin
  E-Selectin expression: fail to induce
